Data as given in the supplement of paper PMC11451515.

Assays:
Conditions in all cases: 48 h
NOMO1 [1] = test: cell viability relative to DMSO control; higher = less cytotoxic
Method in brief: (§1)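 Viability was expressed as a per-plate percentage of DMSO wells, with cell-free wells as background. Leukemia cells (NOMO1 or SEM at 500 cells/well, P12-Ichikawa at 1000 cells/well) were adapted for at least four passages in each medium and seeded in 1536-well plates (5 μl). Library compounds in DMSO were pin-dosed over an 11-point threefold series from 47 μM to 0.79 nM, and CellTiter-Glo One luminescence was read after 48 h at 37°C.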

P12-Ichikawa [2] = test: as above
Method in brief: as §1

SEM cells [3] = test: as above
Method in brief: as §1

NOMO1 [4] = test: AUC of viability dose-response curve (% viability x log10 dose units); higher = less sensitive
Method in brief: (§2)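 Leukemia cells adapted to each medium were seeded in 1536-well plates (500 or 1000 cells/well) and given library compounds in DMSO for 48 h at 37°C. The 11 threefold doses spanned 47 μM to 0.79 nM, and CellTiter-Glo One luminescence was normalised per plate to DMSO and cell-free wells before four-parameter log-logistic fitting on log10 dose. Area under the curve was integrated with the trapezoidal rule, scaling curves above full viability and removing curves that failed quality control.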

P12-Ichikawa [5] = test: as above
Method in brief: as §2

SEM cells [6] = test: as above
Method in brief: as §2

CC(C)C1=C(O)C=C(O)C(=C1)C/2=N/NC(=O)N2C3=CC4=C(C=C3)[N](C)C=C4
cell viability [%]
Conditions	NOMO1 [1]	P12-Ichikawa [2]	SEM cells [3]
HPLM + 10% dialyzed FBS, 0.000781 µM	134	119	–
HPLM + 10% dialyzed FBS, 0.00234 µM	116	118	–
HPLM + 10% dialyzed FBS, 0.00702 µM	123	118	–
HPLM + 10% dialyzed FBS, 0.0211 µM	130	117	–
HPLM + 10% dialyzed FBS, 0.0632 µM	118	116	–
HPLM + 10% dialyzed FBS, 0.19 µM	29.5	78.1	–
HPLM + 10% dialyzed FBS, 0.569 µM	23.4	51.7	–
HPLM + 10% dialyzed FBS, 1.71 µM	23.2	54.2	–
HPLM + 10% dialyzed FBS, 5.12 µM	20.7	49	–
HPLM + 10% dialyzed FBS, 15.4 µM	21	47.4	–
HPLM + 10% dialyzed FBS, 46.1 µM	15.8	45.3	–
RPMI 5 mM glucose + 10% FBS, 0.000781 µM	106	119	123
RPMI 5 mM glucose + 10% FBS, 0.00234 µM	101	123	112
RPMI 5 mM glucose + 10% FBS, 0.00702 µM	107	125	116
RPMI 5 mM glucose + 10% FBS, 0.0211 µM	112	112	101
RPMI 5 mM glucose + 10% FBS, 0.0632 µM	105	110	72.5
RPMI 5 mM glucose + 10% FBS, 0.19 µM	19.6	51	22.7
RPMI 5 mM glucose + 10% FBS, 0.569 µM	16.3	41	25.2
RPMI 5 mM glucose + 10% FBS, 1.71 µM	15.3	41.3	20
RPMI 5 mM glucose + 10% FBS, 5.12 µM	16.8	41.8	23.6
RPMI 5 mM glucose + 10% FBS, 15.4 µM	16.3	41.6	20.7
RPMI 5 mM glucose + 10% FBS, 46.1 µM	13.3	38.6	15.4
RPMI 5 mM glucose + 10% dialyzed FBS, 0.000781 µM	120	112	113
RPMI 5 mM glucose + 10% dialyzed FBS, 0.00234 µM	117	123	112
RPMI 5 mM glucose + 10% dialyzed FBS, 0.00702 µM	130	127	111
RPMI 5 mM glucose + 10% dialyzed FBS, 0.0211 µM	118	122	114
RPMI 5 mM glucose + 10% dialyzed FBS, 0.0632 µM	95.9	116	75.2
RPMI 5 mM glucose + 10% dialyzed FBS, 0.19 µM	32.6	48.7	34.2
RPMI 5 mM glucose + 10% dialyzed FBS, 0.569 µM	22.3	45.6	29.6
RPMI 5 mM glucose + 10% dialyzed FBS, 1.71 µM	19.6	42.6	23.8
RPMI 5 mM glucose + 10% dialyzed FBS, 5.12 µM	20	44.4	25
RPMI 5 mM glucose + 10% dialyzed FBS, 15.4 µM	16.9	41.5	25.3
RPMI 5 mM glucose + 10% dialyzed FBS, 46.1 µM	17.6	39	22

AUC of viability dose-response curve
Conditions	NOMO1 [4]	P12-Ichikawa [5]	SEM cells [6]
HPLM + 10% dialyzed FBS	259	335	248
RPMI 5 mM glucose + 10% FBS	254	304	241
RPMI 5 mM glucose + 10% dialyzed FBS	250	307	259

CN1C[C@H]2c3ccccc3Oc3ccc(Cl)cc3[C@@H]2C1
cell viability [%]
Conditions	NOMO1 [1]	P12-Ichikawa [2]	SEM cells [3]
HPLM + 10% dialyzed FBS, 0.000781 µM	78.1	88.5	75.4
HPLM + 10% dialyzed FBS, 0.00234 µM	106	86.3	76
HPLM + 10% dialyzed FBS, 0.00702 µM	93.5	83.8	68
HPLM + 10% dialyzed FBS, 0.0211 µM	92.7	90.2	76.3
HPLM + 10% dialyzed FBS, 0.0632 µM	85.6	89.7	80.2
HPLM + 10% dialyzed FBS, 0.19 µM	90	96.8	84
HPLM + 10% dialyzed FBS, 0.569 µM	106	92.5	94.5
HPLM + 10% dialyzed FBS, 1.71 µM	96	96	90
HPLM + 10% dialyzed FBS, 5.12 µM	90.5	91.4	96.3
HPLM + 10% dialyzed FBS, 15.4 µM	93.8	93	85
HPLM + 10% dialyzed FBS, 46.1 µM	82.1	95.8	6.31
RPMI 5 mM glucose + 10% FBS, 0.000781 µM	75.8	96.9	89.6
RPMI 5 mM glucose + 10% FBS, 0.00234 µM	93.6	94.5	80.8
RPMI 5 mM glucose + 10% FBS, 0.00702 µM	88.7	95.6	90.6
RPMI 5 mM glucose + 10% FBS, 0.0211 µM	90.4	97.8	86.7
RPMI 5 mM glucose + 10% FBS, 0.0632 µM	91.3	88.4	71.4
RPMI 5 mM glucose + 10% FBS, 0.19 µM	83.3	95.4	91.7
RPMI 5 mM glucose + 10% FBS, 0.569 µM	80.7	98.2	92.4
RPMI 5 mM glucose + 10% FBS, 1.71 µM	88.2	99	90.6
RPMI 5 mM glucose + 10% FBS, 5.12 µM	80.4	96.7	95.8
RPMI 5 mM glucose + 10% FBS, 15.4 µM	87.3	103	79.3
RPMI 5 mM glucose + 10% FBS, 46.1 µM	85.6	101	5.32
RPMI 5 mM glucose + 10% dialyzed FBS, 0.000781 µM	85.8	87.6	73.5
RPMI 5 mM glucose + 10% dialyzed FBS, 0.00234 µM	86.1	89.7	83.7
RPMI 5 mM glucose + 10% dialyzed FBS, 0.00702 µM	85.4	82.3	76.6
RPMI 5 mM glucose + 10% dialyzed FBS, 0.0211 µM	94.2	87.6	83.3
RPMI 5 mM glucose + 10% dialyzed FBS, 0.0632 µM	87.4	87.5	73.5
RPMI 5 mM glucose + 10% dialyzed FBS, 0.19 µM	95.2	96.6	105
RPMI 5 mM glucose + 10% dialyzed FBS, 0.569 µM	85.2	87	107
RPMI 5 mM glucose + 10% dialyzed FBS, 1.71 µM	83.9	84.5	103
RPMI 5 mM glucose + 10% dialyzed FBS, 5.12 µM	93	80	85.3
RPMI 5 mM glucose + 10% dialyzed FBS, 15.4 µM	82.1	84.3	79.1
RPMI 5 mM glucose + 10% dialyzed FBS, 46.1 µM	85.3	78.1	6.04

AUC of viability dose-response curve
Conditions	NOMO1 [4]	P12-Ichikawa [5]	SEM cells [6]
HPLM + 10% dialyzed FBS	440	436	372
RPMI 5 mM glucose + 10% FBS	410	462	395
RPMI 5 mM glucose + 10% dialyzed FBS	418	410	396
